This assay addresses T1, Solute carrier family 22 member 12 (Homo sapiens, UniProt Q96S37).
T1 sequence (Q96S37 whole entry): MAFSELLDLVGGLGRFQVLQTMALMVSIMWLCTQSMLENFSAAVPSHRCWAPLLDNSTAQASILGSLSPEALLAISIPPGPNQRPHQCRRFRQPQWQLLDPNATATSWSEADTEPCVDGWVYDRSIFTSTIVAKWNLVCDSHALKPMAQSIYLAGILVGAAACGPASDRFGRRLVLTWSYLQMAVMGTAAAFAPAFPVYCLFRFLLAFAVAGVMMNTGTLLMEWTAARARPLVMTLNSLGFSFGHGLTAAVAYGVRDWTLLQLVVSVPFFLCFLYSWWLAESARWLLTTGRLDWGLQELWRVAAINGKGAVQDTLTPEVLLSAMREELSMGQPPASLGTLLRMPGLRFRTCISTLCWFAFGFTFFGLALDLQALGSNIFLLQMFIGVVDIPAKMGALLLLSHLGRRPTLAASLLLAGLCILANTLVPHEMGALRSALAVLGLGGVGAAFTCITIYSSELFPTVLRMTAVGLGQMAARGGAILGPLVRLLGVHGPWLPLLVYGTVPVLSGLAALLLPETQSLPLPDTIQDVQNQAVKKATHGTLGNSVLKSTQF
The assay is described as follows: Inhibition of human URAT1 expressed in HEK293 cells assessed as reduction in [8-14C]uric acid uptake. It is filed as cell-based.
For `O=S(=O)(CSc1nnc(Br)n1Cc1ccc(Br)c2ccccc12)Nc1ccc(C(F)(F)F)nc1`, the IC50 (as a rule, the concentration at which inhibition is half-maximal) was found to be 10.2 µM. Consider `O=S(=O)(CSc1nnc(Br)n1Cc1ccc(Br)c2ccccc12)Nc1ccc(Cl)nc1Cl`, for which the half-maximal inhibitory concentration (IC50) turned out to be 1.66 µM. The figure for `O=S(=O)(CSc1nnc(Br)n1Cc1ccc(Br)c2ccccc12)Nc1ccc(F)nc1` is 1.55 µM; for `O=S(=O)(CSc1nnc(Br)n1Cc1ccc(Br)c2ccccc12)Nc1cccnc1Br` it is 0.28 µM. For `NS(=O)(=O)CSc1nnc(Br)n1Cc1ccc(Br)c2ccccc12`, the IC50 turned out to be 365 µM.

Take `O=S(=O)(CSc1nnc(Br)n1Cc1ccc(Br)c2ccccc12)Nc1cccnc1Cl`: the IC50 was 5.1 µM. The figure for `O=C(CSc1nnc(Br)n1Cc1ccc(Br)c2ccccc12)NO` is 0.64 µM; for `O=S(=O)(CSc1nnc(Br)n1Cc1ccc(Br)c2ccccc12)Nc1ccc(Br)nc1Br` it is 5.41 µM; for `O=S(=O)(CSc1nnc(Br)n1Cc1ccc(Br)c2ccccc12)Nc1cncc(C(F)(F)F)c1` it is 6.38 µM. The result for `O=S(=O)(CSc1nnc(Br)n1Cc1ccc(Br)c2ccccc12)Nc1ccccc1` reads 15.8 µM; that for `O=S(=O)(CSc1nnc(Br)n1Cc1ccc(Br)c2ccccc12)Nc1cccnc1`, 0.032 µM; that for `O=S(=O)(CSc1nnc(Br)n1Cc1ccc(Br)c2ccccc12)Nc1cnccc1I`, 10.6 µM.

As to `O=S(=O)(CSc1nnc(Br)n1Cc1ccc(Br)c2ccccc12)Nc1ccc(Br)nc1`, the IC50 amounted to 2.2 µM. Consider `O=S(=O)(CSc1nnc(Br)n1Cc1ccc(Br)c2ccccc12)Nc1cc(Cl)cnc1Cl`, for which the IC50 was found to be 2.79 µM. Regarding `Brc1ccc(Cn2c(Br)nnc2SCc2nnn[nH]2)c2ccccc12`, the IC50 was 3.24 µM. For `O=S(=O)(O)CSc1nnc(Br)n1Cc1ccc(Br)c2ccccc12`, the IC50 was 14.4 µM. The figure for `COc1ncccc1NS(=O)(=O)CSc1nnc(Br)n1Cc1ccc(Br)c2ccccc12` is 4.05 µM; for `O=S(=O)(CSc1nnc(Br)n1Cc1ccc(Br)c2ccccc12)Nc1ccc(Cl)nc1` it is 1.94 µM. The figure for `Oc1c(Br)cc(CSc2nnc(Br)n2Cc2ccc(Br)c3ccccc23)cc1Br` is 119 µM.

These data come from ChEMBL document CHEMBL4371083, “Synthesis, biological evaluation and 3D-QSAR studies of 1,2,4-triazole-5-substituted carboxylic acid bioisosteres as uric acid transporter 1 (URAT1) inhibitors for the treatment of hyperuricemia associated with gout” (Bioorg Med Chem Lett, 2019).
